In US6946452B2, “Use of N-acetyl-D-glucosamine in the manufacture of pharmaceutical useful for treating motion sickness” (Third Military Medical University Chinese People's …, priority 2001, dated 2005):

Tests used:
[1] = in vivo
motion sickness = experiment: Observation of curative efficiency in patients suffering from motion sickness; format: in vivo; settings: for Not effective (number of persons) / Effective (number of persons): 20 persons; for Effective (number of persons): 100 km by car and by small steamboat
Protocol: 80 patients suffering from motion sickness were selected and randomly divided into four groups: a group to whom N-acetyl-D-glucosamine was administered in a long term (800 mg of NAG/person/day), a group to whom N-acetyl-D-glucosamine was administered in a short term (6000 mg of NAG/person/day), placebo group (6000 mg of glucose/person/day), a group to whom no medicament was administered. A double blind method was adopted, observing the curative efficiency for traveling 100 kilometers by car (its velocity was 20 kilometers/hour) and traveling 100 kilometers by a small steamboat. Compared with the situation before traveling by car, the following symptoms being relieved or removed will be judged to be effective: dizziness, nausea and vomiting.

[2] = in vivo; remark: listed apart in the source
Excerpt: 1. acute toxicity test: including tests of administrating medicine by oral, Intravenous injection and maximum limit amount for administration;
III. Observation of Curative Efficiency.

Proteus Mirabilis = experiment: Promoting wave test (bacterial bio-wave growth model); format: cell-based; settings: final concentration of 0.5% on LB plate, 37° C., compared with control
Excerpt: I. Promoting Wave Test of N-acetyl-D-glucosamine
1. Experimental Materials and Method:
1.1 Samples: Pure Compound of Formula (I)
1.2 Experimental Materials: • Strain: Proteus Mirabilis (which should comply with the following biological reaction characteristics: dynamics (+), urease (+), lactose (−), glucose (+), H2S (−), phenylalanine deaminase (+). • Culture medium: modified LB culture medium (the components of the composition are: trytones of 1%, yeast extract of 0.5%, sodium chloride 1%, glucose of 0.1%, TTC of 0.002% and pH=7.2˜7.4).
2. Experimental Results and Evaluation: • The experiment adopts a bio-wave model which is used to research the promoting wave function of N-acetyl-D-glucosamine. […] II. Toxicological Test of the Compound of Formula (I), including: […]

[3] = long term group, 800 mg of NAG/person/day
[4] = short term group, 6000 mg of NAG/person/day

CC(=O)N[C@H]1C(O)O[C@H](CO)[C@@H](O)[C@@H]1O (stereo partly drawn) [N-acetyl-D-glucosamine]
maximum dosage with no toxicosis reaction [1]: 1 g/kg | Not effective (number of persons) (motion sickness; [3]): 2 | Effective (number of persons) (motion sickness; [3]): 18 | effectivity of preventing and treating motion sickness (motion sickness; p<0.05 vs placebo group and no-administration group): more than 90% | Not effective (number of persons) (motion sickness; [4]): 1 | Effective (number of persons) (motion sickness; [4]): 19 | dosage at which acute toxicosis reaction had not appeared [2]: more than 2 g/kg | promoting wave function (concentric ring pattern on LB plate) (Proteus Mirabilis): many fine waves on each ring emerged
